Like-named read-outs stand apart in the source and are kept apart here.

Holding throughout (assay): SelectScreen Kinase Profiling, single point inhibition and IC50 for off-target kinases
Common to all, as to format: biochemical

Experiment [1] concerns the target off-target kinases (Homo sapiens, UniProt O00418).
Experiment [2] addresses off-target kinases (Homo sapiens, UniProt Q13131).
In experiment [3] the target is T1, off-target kinases (Homo sapiens, UniProt O00444).
T1 sequence (O00444 1-970): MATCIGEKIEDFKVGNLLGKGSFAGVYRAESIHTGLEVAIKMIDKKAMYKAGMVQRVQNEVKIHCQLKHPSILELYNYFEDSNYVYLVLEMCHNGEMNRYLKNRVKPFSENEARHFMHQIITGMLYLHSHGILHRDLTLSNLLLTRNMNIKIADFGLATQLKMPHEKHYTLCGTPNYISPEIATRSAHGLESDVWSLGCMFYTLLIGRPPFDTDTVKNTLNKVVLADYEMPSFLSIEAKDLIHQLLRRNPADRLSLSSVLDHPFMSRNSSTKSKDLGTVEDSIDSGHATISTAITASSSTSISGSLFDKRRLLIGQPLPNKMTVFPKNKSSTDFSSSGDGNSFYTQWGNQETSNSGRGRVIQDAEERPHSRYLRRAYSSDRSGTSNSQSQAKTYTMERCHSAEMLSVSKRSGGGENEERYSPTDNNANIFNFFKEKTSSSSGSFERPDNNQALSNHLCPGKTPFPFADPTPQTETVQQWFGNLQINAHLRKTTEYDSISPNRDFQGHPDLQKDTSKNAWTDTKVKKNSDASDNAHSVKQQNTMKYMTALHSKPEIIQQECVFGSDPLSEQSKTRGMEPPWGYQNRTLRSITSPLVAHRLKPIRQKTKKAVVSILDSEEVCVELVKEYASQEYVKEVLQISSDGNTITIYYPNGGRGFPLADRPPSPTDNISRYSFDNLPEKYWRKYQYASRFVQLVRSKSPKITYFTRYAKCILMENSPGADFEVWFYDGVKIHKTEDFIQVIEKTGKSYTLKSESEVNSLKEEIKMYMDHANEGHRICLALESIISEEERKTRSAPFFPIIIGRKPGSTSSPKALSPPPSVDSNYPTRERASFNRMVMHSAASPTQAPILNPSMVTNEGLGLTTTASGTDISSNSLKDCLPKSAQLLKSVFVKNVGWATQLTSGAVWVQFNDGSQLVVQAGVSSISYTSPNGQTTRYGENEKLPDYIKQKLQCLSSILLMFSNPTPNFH
The following applies: PLK4, LanthaScreen Binding.

Sequence of off-target kinases (Homo sapiens, UniProt O00418) (O00418 whole entry): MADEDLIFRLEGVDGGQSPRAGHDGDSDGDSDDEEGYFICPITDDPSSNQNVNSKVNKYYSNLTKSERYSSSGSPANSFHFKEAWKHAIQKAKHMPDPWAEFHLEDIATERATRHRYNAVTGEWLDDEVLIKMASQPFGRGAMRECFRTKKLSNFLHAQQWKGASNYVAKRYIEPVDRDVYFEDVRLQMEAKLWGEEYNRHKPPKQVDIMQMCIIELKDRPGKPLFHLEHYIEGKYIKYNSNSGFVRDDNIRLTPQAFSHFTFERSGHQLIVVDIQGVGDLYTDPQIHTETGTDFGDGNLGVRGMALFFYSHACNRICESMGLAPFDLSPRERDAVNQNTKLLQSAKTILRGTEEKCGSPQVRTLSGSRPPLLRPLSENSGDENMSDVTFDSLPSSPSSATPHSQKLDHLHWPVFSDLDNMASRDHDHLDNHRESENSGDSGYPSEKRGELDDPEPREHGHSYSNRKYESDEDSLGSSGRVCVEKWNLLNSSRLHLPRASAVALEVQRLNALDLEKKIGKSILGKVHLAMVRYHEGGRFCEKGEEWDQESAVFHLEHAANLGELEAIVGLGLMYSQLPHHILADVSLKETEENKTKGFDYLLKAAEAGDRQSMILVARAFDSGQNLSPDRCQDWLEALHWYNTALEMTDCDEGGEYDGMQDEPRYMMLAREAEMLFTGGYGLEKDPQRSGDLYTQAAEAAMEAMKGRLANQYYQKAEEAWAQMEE
Sequence of off-target kinases (Homo sapiens, UniProt Q13131) (Q13131 whole entry): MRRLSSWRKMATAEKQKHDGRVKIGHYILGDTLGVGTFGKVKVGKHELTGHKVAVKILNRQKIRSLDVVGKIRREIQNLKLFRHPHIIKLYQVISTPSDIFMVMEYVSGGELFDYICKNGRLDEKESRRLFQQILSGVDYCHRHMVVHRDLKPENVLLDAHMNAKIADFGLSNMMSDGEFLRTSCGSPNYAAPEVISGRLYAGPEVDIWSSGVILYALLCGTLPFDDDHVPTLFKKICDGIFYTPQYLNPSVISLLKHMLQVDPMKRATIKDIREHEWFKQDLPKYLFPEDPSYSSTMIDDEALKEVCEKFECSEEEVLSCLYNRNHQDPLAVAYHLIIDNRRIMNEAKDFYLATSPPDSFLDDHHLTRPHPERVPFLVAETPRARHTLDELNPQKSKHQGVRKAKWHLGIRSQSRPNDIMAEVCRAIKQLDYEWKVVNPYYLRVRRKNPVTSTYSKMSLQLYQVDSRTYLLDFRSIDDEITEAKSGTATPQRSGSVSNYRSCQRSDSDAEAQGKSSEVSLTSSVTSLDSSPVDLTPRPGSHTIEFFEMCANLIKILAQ

`N#Cc1cc(-c2ncnc(Nc3ccc(N4CCN(C5COC5)CC4)cc3)n2)ccc1OC1CCOCC1` [Compound 1, 5-(4-((4-(4-(oxetan-3-yl)piperazin-1-yl)phenyl)amino)-1,3,5-triazin-2-yl)-2-((tetrahydro-2H-pyran-4-yl)oxy)benzonitrile]: the inhibition at off-target kinases [1] (read-out: % Inhibition 1) is -1%; on off-target kinases [1] (read-out: % Inhibition 2) it was 0%; at off-target kinases [1] (read-out: % Inhibition Avg) it was -1%; at off-target kinases [2] (AMPK (A1/B1/G2), LanthaScreen Binding, read-out: % Inhibition 1) it was 40%; at off-target kinases [2] (AMPK (A1/B1/G2), LanthaScreen Binding, read-out: % Inhibition 2), 40%; at off-target kinases [2] (AMPK (A1/B1/G2), LanthaScreen Binding, read-out: % Inhibition Avg), 40%. Further, the inhibition at off-target kinases [2] (AMPK (A1/B1/G3), LanthaScreen Binding, read-out: % Inhibition 1) worked out at 37%; on off-target kinases [2] (AMPK (A1/B1/G3), LanthaScreen Binding, read-out: % Inhibition 2), 42%; at off-target kinases [2] (AMPK (A1/B1/G3), LanthaScreen Binding, read-out: % Inhibition Avg), 39%; at off-target kinases [2] (AMPK (A1/B2/G1), LanthaScreen Binding, read-out: % Inhibition 1), 49%; on off-target kinases [2] (AMPK (A1/B2/G1), LanthaScreen Binding, read-out: % Inhibition 2), 43%; on off-target kinases [2] (AMPK (A1/B2/G1), LanthaScreen Binding, read-out: % Inhibition Avg), 46%. For the same compound, the inhibition on off-target kinases [2] (AMPK A1/B1/G1, ATP Km app, ZLYTE, read-out: % Inhibition 1) amounted to 58%; at off-target kinases [2] (AMPK A1/B1/G1, ATP Km app, ZLYTE, read-out: % Inhibition 2), 53%; at off-target kinases [2] (AMPK A1/B1/G1, ATP Km app, ZLYTE, read-out: % Inhibition Avg), 55%; at off-target kinases [3] (read-out: % Inhibition 1) it was 96%; on off-target kinases [3] (read-out: % Inhibition 2), 95%; at off-target kinases [3] (read-out: % Inhibition Avg) it was 96%.

For orientation: inhibition means the drop in the measured response relative to a control, in per cent.

(Values after US11572590B2, “Methods for evaluating tumor cell spheroids using 3D microfluidic cell culture device” (Dana-Farber Cancer Institute, Inc., priority 2017, dated 2023).)
